Molecules are shown by their SMILES.

Turning to `Cc1ccccc1NC(=O)Nc1ccc(CC(=O)NC(CC(C)C)C2=NOC(CCC(=O)O)(CCC(=O)O)C2)cc1` (stereo not shown) [Example 6, 3-[5-(2-Carboxy-ethyl)-3-(3-methyl-1-{2-[4-(3-o-tolyl-ureido)-phenyl]-acetylamino}-butyl)-4,5dihydro-isoxazol-5-yl]-propionic acid], the melting point – broadly, the temperature of the solid-liquid transition – fell in the range of 173 to 175 °C.
For `CC(C)CC(NC(=O)Cc1ccc(NC(=O)Nc2ccccn2)cc1)c1cc(CCC(=O)O)on1` (stereo not shown) [Example 10, [3-(3-Methyl-1-{2-[4-(3-pyridin-2-yl-ureido)-phenyl]-acetylamino}-butyl)-isoxazol-5-yl]-propionic acid] the value was 159 to 161 °C; for `Cc1ccccc1NC(=O)Nc1ccc(CC(=O)NC(CC(C)C)c2cc(/C=C/C(=O)O)on2)cc1` (stereo not shown) [Example 18, 3-[3-(3-Methyl-1-{2-[4-(3-o-tolyl-ureido)-phenyl]-acetylamino}-butyl)-isoxazol-5-yl]-acrylic acid], 136 to 138 °C; for `COc1ccccc1NC(=O)Nc1ccc(CC(=O)NC(CC(C)C)c2ncc(CCC(=O)O)s2)cc1` (stereo not shown) [Example 16, 3-{2-[1-(2-{4-[3-(2-Methoxy-phenyl)-ureido]-phenyl}-acetylamino)-3-methyl-butyl]-thiazol-5-yl}-propionic acid], 197 to 198 °C.
The compound `CC(C)CC(NC(=O)Cc1ccc(NC(=O)Nc2ccccn2)cc1)c1ncc(CCC(=O)O)s1` (stereo not shown) [Example 11, [2-(3-Methyl-1-{2-[4-(3-pyridin-2-yl-ureido)-phenyl]-acetylamino}-butyl)-thiazol-5-yl]-propionic acid] showed a melting point of 173 to 175 °C.
For `Cc1ccccc1NC(=O)Nc1ccc(CC(=O)NC(CC(C)C)c2ncc(CCC(=O)O)o2)cc1` (stereo not shown) [Example 8, [2-(3-Methyl-1-{2-[4-(3-o-tolyl-ureido)-phenyl]-acetylamino}-butyl)oxazol-5-yl]-propionic acid] the value was 168 to 170 °C.
For `CC(C)CC(NC(=O)Cc1ccc(NC(=O)Nc2ccccc2)cc1)c1ncc(CCC(=O)O)s1` (stereo not shown) [Example 22, 3-[2-(3-Methyl-1-{2-[4-(3-phenyl-ureido)-phenyl]-acetylamino}-butyl)-thiazol-5-yl]-propionic acid] the value was 146 to 148 °C.
Consider `Cc1cccc(C)c1NC(=O)Nc1ccc(CC(=O)NC(CC(C)C)c2ncc(CCC(=O)O)s2)cc1` (stereo not shown) [Example 20, 3-{2-[1-(2-{4-[3-(2,6-Dimethyl-phenyl)-ureido]-phenyl}-acetylamino)-3-methyl-butyl]-thiazol-5-yl}-propionic acid], for which the melting point was 125 to 127 °C.
Compound `Cc1ccccc1NC(=O)Nc1ccc(CC(=O)NC2(c3cc(CCC(=O)O)on3)CCCC2)cc1` [Example 9, 3-[3-(1-{2-[4-(3-o-Tolyl-ureido)-phenyl]-acetylamino}-cyclopentyl)-isoxazol-5-yl]-propionic acid] gave a melting point of 195 to 197 °C.
For `CC(C)CC(NC(=O)Cc1ccc(NC(=O)Nc2c(Cl)cccc2Cl)cc1)c1ncc(CCC(=O)O)s1` (stereo not shown) [Example 19, 3-{2-[1-(2-{4-[3-(2,6-Dichloro-phenyl)-ureido]-phenyl}-acetylamino)-3-methyl-butyl]-thiazol-5-yl}-propionic acid] the value was 148 to 150 °C.
With `Cc1cccc(Cl)c1NC(=O)Nc1ccc(CC(=O)NC(CC(C)C)c2ncc(CCC(=O)O)s2)cc1` (stereo not shown) [Example 21, 3-{2-[1-(2-{4-[3-(2-Chloro-6-methyl-phenyl)-ureido]-phenyl}-acetylamino)-3-methyl-butyl]-thiazol-5-yl}-propionic acid], the melting point was in the range of 160 to 162 °C.
With `CC(C)CC(NC(=O)Cc1ccc(NC(=O)Nc2ccccc2Cl)cc1)c1cc(CCC(=O)O)on1` (stereo not shown) [Example 24, 3-{3-[1-(2-{4-[3-(2-Chloro-phenyl)-ureido]-phenyl}-acetylamino)-3-methyl-butyl]-isoxazol-5-yl}propionic acid] the figure was 143 to 145 °C; with `Cc1ccccc1NC(=O)Nc1ccc(CC(=O)N2CCN(CCC(=O)O)C(=O)C2Cc2ccccc2)cc1` (stereo not shown) [Example 4, (3-Benzyl-2-oxo-4-{[4-(3-o-tolyl-ureido)-phenyl]-acetyl}-piperazin-1-yl)-propionic acid], 103 to 105 °C; with `CC(C)CC(NC(=O)Cc1ccc(NC(=O)Nc2ccccc2F)cc1)c1ncc(CCC(=O)O)s1` (stereo not shown) [Example 17, 3-{2-[1-(2-{4-[3-(2-Fluoro-phenyl)-ureido]-phenyl}-acetylamino)-3-methyl-butyl]-thiazol-5-yl}-propionic acid], 83 to 85 °C.
For `CC(C)CC(NC(=O)Cc1ccc(NC(=O)Nc2ccccc2Cl)cc1)c1ncc(CCC(=O)O)s1` (stereo not shown) [Example 15, 3-{2-[1-(2-{4-[3-(2-Chloro-phenyl)-ureido]-phenyl}-acetylamino)-3-methyl-butyl]-thiazol-5-yl}-propionic acid] the value was 173 to 175 °C; for `CCOC(=O)CC(=O)c1cc(C(CC(C)C)NC(=O)Cc2ccc(NC(=O)Nc3ccccc3Cl)cc2)no1` (stereo not shown) [Example 26, 3-{3-[1-(2-{4-[3-(2-Chloro-phenyl)-ureido]-phenyl}-acetylamino)-3-methyl-butyl]-isoxazol-5-yl}-3-oxo-propionic acid ethyl ester], 150 to 152 °C.

Values taken from patent US6355662B1, “Non-peptidyl inhibitors of a VLA-4 dependent cell binding useful in treating inflammatory, autoimmune, and respiratory diseases” (Pfizer Inc, priority 1998, dated 2002).
